Test systems include NCI-H23 lung; SNB-19 CNS; SK-MEL-28 melanoma; ACHN renal; IGROV1 ovarian; MDA-MB-435; OVCAR-4 ovarian; SN12C renal.
Common to all, as to test: NCI tumour cell line growth inhibition, 48 h

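Exposure lasted 48 hours, with cells grown in 96-well plates and compounds tested at five concentrations. The concentration for full growth arrest is given as TGI.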

On to `CC(C(=O)NCCNC(=O)CCC(=O)N(C)O)C(=O)NCCNC(=O)CCC(=O)N(C)O`, for which the TGI with NCI-H23 lung, in the test with SNB-19 CNS, in the test with SK-MEL-28 melanoma, in the test on ACHN renal, in the test with IGROV1 ovarian and in the test with MDA-MB-435 was over 100 µM throughout. Further, the TGI in the test with OVCAR-4 ovarian is over 100 µM.

On to `COc1ccc(N2CN(C)CSC2=S)cc1`, for which the TGI in the test on NCI-H23 lung, in the test with SNB-19 CNS, with SK-MEL-28 melanoma, in the test with ACHN renal, with IGROV1 ovarian and in the test on SN12C renal was over 100 µM throughout. The TGI with MDA-MB-435 and with OVCAR-4 ovarian was over 100 µM each time.

For `CC(C)(C)c1cc(C(=O)C2Cc3ccccc3C(=O)O2)cc(C(C)(C)C)c1O` (centres undefined), the TGI in the test with NCI-H23 lung is 35.8 µM; in the test with SNB-19 CNS it was 24.7 µM; with SK-MEL-28 melanoma, 36.8 µM; in the test on ACHN renal, 40.3 µM; in the test with IGROV1 ovarian, 32.6 µM; with SN12C renal, 26.5 µM. Besides, the TGI with MDA-MB-435 was determined as 32.6 µM; in the test with OVCAR-4 ovarian it was 65.7 µM.

Turning to `COC(=O)[C@@H]1[C@H](O)CCC2=C(CC(=O)c3ccoc3)[C@H](C)CC[C@]21C`, the TGI with NCI-H23 lung, with SNB-19 CNS, in the test with SK-MEL-28 melanoma, in the test on ACHN renal, in the test on IGROV1 ovarian and with SN12C renal was over 50 µM in each case. The same compound registered a TGI with OVCAR-4 ovarian of over 50 µM.

Take `O=C(OCC1CCCN2CCCCC12)c1cccnc1` (centres undefined): the TGI with NCI-H23 lung, in the test with SNB-19 CNS, in the test on SK-MEL-28 melanoma, in the test with ACHN renal, with SN12C renal and in the test with MDA-MB-435 was over 100 µM throughout. Further, the TGI with OVCAR-4 ovarian is over 100 µM.

Turning to `Nc1ncnc2c1ncn2C1OC(CO)C(O)C1NS(=O)(=O)c1ccccc1` (centres undefined), the TGI with NCI-H23 lung, with SNB-19 CNS, in the test with SK-MEL-28 melanoma, in the test on ACHN renal, in the test on IGROV1 ovarian and in the test with SN12C renal was over 100 µM in each case. The TGI with MDA-MB-435 and with OVCAR-4 ovarian was over 100 µM throughout.

On to `COc1ccc(C(=O)c2c(-c3ccccc3NC(=O)C(F)(F)F)[nH]c3ccccc23)cc1`, for which the TGI with NCI-H23 lung was 25.7 µM; in the test on SNB-19 CNS it was 21.6 µM; in the test on SK-MEL-28 melanoma, 27.6 µM; in the test on ACHN renal, 11.6 µM; in the test with IGROV1 ovarian, 24.3 µM; with SN12C renal it was 28.3 µM. Further, the figures for the TGI in the test with MDA-MB-435 and in the test on OVCAR-4 ovarian were 25.5 µM and 19.2 µM, respectively.

Regarding `N/C(=N\S(=O)(=O)c1ccc(-c2ccccn2)s1)Nc1ccc(Cl)cc1`, the TGI came out at 33.2 µM in the test on NCI-H23 lung; 31.5 µM in the test on SNB-19 CNS; 37.8 µM in the test with SK-MEL-28 melanoma; 33.6 µM with ACHN renal; 34.1 µM in the test with IGROV1 ovarian; 30.3 µM with SN12C renal. In the test on OVCAR-4 ovarian, this compound displayed a TGI of 37.7 µM.

Regarding `CCNC(=O)NNc1ncnc2c1c(-c1ccc(Cl)cc1)cn2-c1ccc(C)cc1`, the TGI in the test with NCI-H23 lung amounted to 44.8 µM; in the test on SNB-19 CNS it was 34.5 µM; with SK-MEL-28 melanoma it was 33.3 µM; with ACHN renal, 41.9 µM; in the test on IGROV1 ovarian, 37.7 µM; in the test with SN12C renal it was 30.3 µM. Also, the TGI in the test with MDA-MB-435 is 30.7 µM; in the test on OVCAR-4 ovarian it was 40.8 µM.

As for `CC(=O)NNC(=S)/N=C\c1c(O)c2ccccc2oc1=O`, the TGI with NCI-H23 lung, in the test with SNB-19 CNS, in the test with SK-MEL-28 melanoma, in the test with ACHN renal, with IGROV1 ovarian and in the test on SN12C renal was over 100 µM each time. Further, the TGI with MDA-MB-435 and with OVCAR-4 ovarian was over 100 µM in each case.

Consider `Oc1cc(O)c2c(c1)O[C@H](c1cc(O)c(O)c(O)c1)[C@@H](O)C2`, for which the TGI in the test on NCI-H23 lung was 58.2 µM; with SNB-19 CNS it was over 100 µM; in the test on SK-MEL-28 melanoma, over 100 µM; in the test with ACHN renal, 48 µM; in the test with IGROV1 ovarian, 38.9 µM; in the test on SN12C renal, 33 µM. Further, the TGI was 38.1 µM in the test on MDA-MB-435 and 48.7 µM in the test on OVCAR-4 ovarian.

In the case of `CC(C)NCC(O)c1ccc(O)c2ncccc12` (centres undefined), the TGI in the test on NCI-H23 lung was 78.7 µM; with SNB-19 CNS, over 100 µM; with SK-MEL-28 melanoma, over 100 µM; in the test on ACHN renal, over 100 µM; in the test on IGROV1 ovarian, over 100 µM; with SN12C renal it was over 100 µM. Further, the TGI in the test with MDA-MB-435 and with OVCAR-4 ovarian was over 100 µM in each case.

With `Oc1cc(Cl)cc2cc(Cl)cnc12`, the TGI with NCI-H23 lung was 24.4 µM; in the test on SNB-19 CNS, over 100 µM; with SK-MEL-28 melanoma it was over 100 µM; with ACHN renal, 21.3 µM; with IGROV1 ovarian, 22.6 µM; in the test with SN12C renal, over 100 µM. Besides, the TGI with MDA-MB-435 and in the test on OVCAR-4 ovarian was over 100 µM each time.

Regarding `O=C(/C=C/c1ccc2c(c1)OCO2)NCCc1ccco1`, the TGI with NCI-H23 lung, in the test on SNB-19 CNS, with SK-MEL-28 melanoma, in the test with ACHN renal, with IGROV1 ovarian and in the test with SN12C renal was over 100 µM throughout. In addition, the TGI in the test with MDA-MB-435 and in the test on OVCAR-4 ovarian was over 100 µM throughout.

With `C=C1C(=O)[C@]23C[C@H]1C[C@@H](O)[C@H]2[C@]1(COC3=O)[C@@H](OC(C)=O)CC[C@@](C)(COC(C)=O)[C@H]1C=O`, the TGI with NCI-H23 lung, in the test on SNB-19 CNS, in the test with SK-MEL-28 melanoma, in the test on ACHN renal, in the test with IGROV1 ovarian and in the test on SN12C renal was over 50 µM throughout. Also, the TGI in the test with MDA-MB-435 and in the test with OVCAR-4 ovarian was over 50 µM in each case.

Regarding `N#CCCN(CCC#N)c1ccc(/C=C2\SC(=S)NC2=O)cc1`, the TGI in the test with NCI-H23 lung, with SNB-19 CNS, in the test with SK-MEL-28 melanoma, with ACHN renal, in the test with IGROV1 ovarian and in the test on SN12C renal was over 100 µM each time. Moreover, the TGI in the test on MDA-MB-435 and with OVCAR-4 ovarian was over 100 µM each time.

These data come from PubChem BioAssay (NCI).
